In patent US12264156B2, “Compounds and pharmaceutical compositions thereof for the treatment of diseases” (GALAPAGOS NV, priority 2018, dated 2025):

Key:
Format in all cases: biochemical
Settings in all cases: ADP-Glo SIK kinase assay
[1] = target: T1, SIK3 (Homo sapiens, UniProt Q9Y2K2); assay: ADP-Glo kinase assay, SIK3
T1 construct: purchased SignalChem S12-11G-100
Summary of the method: (§1)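 Wells with 1% DMSO or 10 μM staurosporine (final) define the control window. The kinase reaction with substrate and ATP runs 120 min at RT, followed by ADP-Glo detection: ATP depletion (40 min) and ADP-derived luminescence (30 min).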

[2] = target: T2, SIK1 (Homo sapiens, UniProt P57059); assay: ADP-Glo kinase assay, SIK1
T2 construct: purchased Carna Biosciences 02-131
Summary of the method: as §1

[3] = target: T3, SIK2 (Homo sapiens, UniProt Q9H0K1); assay: ADP-Glo kinase assay, SIK2
T3 construct: purchased ThermoFisher Scientific PV4792
Summary of the method: as §1

T2 sequence (P57059 whole entry): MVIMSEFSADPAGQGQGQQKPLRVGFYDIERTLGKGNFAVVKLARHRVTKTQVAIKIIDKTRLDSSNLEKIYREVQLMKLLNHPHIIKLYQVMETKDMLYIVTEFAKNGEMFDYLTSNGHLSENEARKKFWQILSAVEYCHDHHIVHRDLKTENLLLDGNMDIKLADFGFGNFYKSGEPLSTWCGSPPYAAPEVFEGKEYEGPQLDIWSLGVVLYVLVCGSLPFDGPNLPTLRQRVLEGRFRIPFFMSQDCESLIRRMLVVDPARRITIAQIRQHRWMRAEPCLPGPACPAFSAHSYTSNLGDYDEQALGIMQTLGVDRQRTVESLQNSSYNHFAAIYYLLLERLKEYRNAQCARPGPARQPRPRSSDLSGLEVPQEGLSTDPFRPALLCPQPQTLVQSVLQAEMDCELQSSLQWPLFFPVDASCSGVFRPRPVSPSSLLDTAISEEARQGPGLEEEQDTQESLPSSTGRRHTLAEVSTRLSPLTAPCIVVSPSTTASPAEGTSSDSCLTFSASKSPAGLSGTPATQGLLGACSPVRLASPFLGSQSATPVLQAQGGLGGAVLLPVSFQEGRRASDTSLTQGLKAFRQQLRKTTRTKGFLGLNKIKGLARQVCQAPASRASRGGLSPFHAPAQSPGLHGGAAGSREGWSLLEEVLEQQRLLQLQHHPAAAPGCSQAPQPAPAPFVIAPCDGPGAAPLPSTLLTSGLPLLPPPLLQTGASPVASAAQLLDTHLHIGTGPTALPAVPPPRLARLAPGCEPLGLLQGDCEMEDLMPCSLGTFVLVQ
T3 sequence (Q9H0K1 whole entry): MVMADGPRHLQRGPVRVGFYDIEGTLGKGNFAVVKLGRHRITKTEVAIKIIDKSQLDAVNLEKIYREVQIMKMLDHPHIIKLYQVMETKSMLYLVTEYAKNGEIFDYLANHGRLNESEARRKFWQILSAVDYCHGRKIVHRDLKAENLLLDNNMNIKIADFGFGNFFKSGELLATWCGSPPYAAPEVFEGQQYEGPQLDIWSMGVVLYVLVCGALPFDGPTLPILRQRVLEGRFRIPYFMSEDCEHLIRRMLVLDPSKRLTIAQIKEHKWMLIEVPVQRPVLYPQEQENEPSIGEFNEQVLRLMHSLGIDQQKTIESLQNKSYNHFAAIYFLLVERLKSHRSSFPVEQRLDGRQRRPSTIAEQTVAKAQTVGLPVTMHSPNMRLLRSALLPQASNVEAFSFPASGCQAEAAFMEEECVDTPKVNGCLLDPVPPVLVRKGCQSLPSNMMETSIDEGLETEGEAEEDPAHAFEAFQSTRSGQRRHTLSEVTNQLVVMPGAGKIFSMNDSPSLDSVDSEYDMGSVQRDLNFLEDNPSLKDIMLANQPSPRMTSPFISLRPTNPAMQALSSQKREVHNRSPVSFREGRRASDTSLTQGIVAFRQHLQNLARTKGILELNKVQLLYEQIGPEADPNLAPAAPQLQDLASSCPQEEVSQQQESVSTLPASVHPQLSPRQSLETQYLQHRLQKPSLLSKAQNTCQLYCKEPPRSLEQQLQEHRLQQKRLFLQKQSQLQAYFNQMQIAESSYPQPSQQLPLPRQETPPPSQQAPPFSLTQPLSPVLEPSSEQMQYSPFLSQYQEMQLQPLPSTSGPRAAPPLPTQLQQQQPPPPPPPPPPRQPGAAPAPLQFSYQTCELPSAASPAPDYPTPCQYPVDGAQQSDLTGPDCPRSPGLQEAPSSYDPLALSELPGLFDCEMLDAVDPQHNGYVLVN
T1 sequence (Q9Y2K2 whole entry): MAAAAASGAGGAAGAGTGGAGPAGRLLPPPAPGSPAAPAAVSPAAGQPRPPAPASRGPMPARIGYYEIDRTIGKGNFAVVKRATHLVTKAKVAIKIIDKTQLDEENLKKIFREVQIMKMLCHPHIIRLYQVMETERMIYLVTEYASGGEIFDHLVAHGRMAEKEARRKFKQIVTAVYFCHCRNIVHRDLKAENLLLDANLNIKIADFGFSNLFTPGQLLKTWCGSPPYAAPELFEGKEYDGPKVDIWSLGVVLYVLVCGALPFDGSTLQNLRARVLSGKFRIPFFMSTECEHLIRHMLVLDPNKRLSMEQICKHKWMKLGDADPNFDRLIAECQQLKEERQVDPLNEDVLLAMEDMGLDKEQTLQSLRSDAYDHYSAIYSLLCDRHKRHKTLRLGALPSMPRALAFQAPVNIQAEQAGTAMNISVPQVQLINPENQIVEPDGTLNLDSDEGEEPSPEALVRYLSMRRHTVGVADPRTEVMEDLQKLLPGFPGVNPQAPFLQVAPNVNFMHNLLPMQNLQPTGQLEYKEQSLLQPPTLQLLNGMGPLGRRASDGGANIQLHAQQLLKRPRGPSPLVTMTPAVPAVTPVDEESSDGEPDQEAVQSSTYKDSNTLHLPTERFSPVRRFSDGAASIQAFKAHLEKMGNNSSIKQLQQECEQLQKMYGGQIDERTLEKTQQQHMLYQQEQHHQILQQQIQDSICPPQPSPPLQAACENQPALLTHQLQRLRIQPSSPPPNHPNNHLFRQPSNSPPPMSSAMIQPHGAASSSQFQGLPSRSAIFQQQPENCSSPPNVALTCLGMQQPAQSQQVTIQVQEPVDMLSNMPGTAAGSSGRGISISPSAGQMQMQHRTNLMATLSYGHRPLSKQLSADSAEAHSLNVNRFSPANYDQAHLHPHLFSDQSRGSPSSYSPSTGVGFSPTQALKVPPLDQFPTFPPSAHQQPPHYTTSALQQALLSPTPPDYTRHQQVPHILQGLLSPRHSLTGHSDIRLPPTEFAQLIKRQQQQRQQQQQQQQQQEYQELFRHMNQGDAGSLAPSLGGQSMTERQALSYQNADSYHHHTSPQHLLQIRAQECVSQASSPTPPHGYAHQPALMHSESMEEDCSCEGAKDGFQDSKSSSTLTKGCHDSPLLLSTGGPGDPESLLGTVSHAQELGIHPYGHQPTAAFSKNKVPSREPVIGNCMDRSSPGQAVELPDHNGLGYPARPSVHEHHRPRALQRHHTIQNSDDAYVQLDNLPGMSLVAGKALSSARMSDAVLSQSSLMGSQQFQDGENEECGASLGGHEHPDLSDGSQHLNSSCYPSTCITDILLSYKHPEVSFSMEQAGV

IC50 [1]	IC50 [2]	IC50 [3]	SMILES
0.01 to 10 nM	100 to 500 nM	0.01 to 10 nM	COc1cc(-c2cnc3cc(OCC4(F)CNC4)ccn23)cc2c1C(=O)N(CC(F)(F)F)CC2 [compound 250, 6-[7-[(3-fluoroazetidin-3-yl)methoxy]imidazo[1,2-a]pyridin-3-yl]-8-methoxy-2-(2,2,2-trifluoroethyl)-3,4-dihydro isoquinolin-1-one]
10 to 100 nM	> 500 nM	100 to 500 nM	COc1cc(-c2cnc3cc(OCc4ccnn4C)ccn23)cnc1C(=O)NCC(F)(F)F [compound 262, 3-methoxy-5-[7-[(2-methylpyrazol-3-yl)methoxy]imidazo[1,2-a]pyridin-3-yl]-N-(2,2,2-trifluoroethyl)pyridine-2-carboxamide]
100 to 500 nM	> 500 nM	100 to 500 nM	COc1cc(-c2cnc3cc(OC[C@H]4COCCO4)ccn23)cnc1C(=O)NCC(F)(F)F [compound 265, 5-[7-[[(2R)-1,4-dioxan-2-yl]methoxy]imidazo[1,2-a]pyridin-3-yl]-3-methoxy-N-(2,2,2-trifluoroethyl)pyridine-2-carboxamide]
0.01 to 10 nM	10 to 100 nM	10 to 100 nM	COc1cc(-c2cnc3cc(OCC4CCCCN4CC#N)ccn23)cc(OC(F)F)c1C(=O)NC1CC1 (stereo not drawn) [compound 269, 4-[7-[[1-(cyanomethyl)-2-piperidyl]methoxy]imidazo [1,2-a]pyridin-3-yl]-N-cyclopropyl-2-(difluoromethoxy)-6-methoxy-benzamide]

The next lines start with the compound.

SMILES	IC50 [1]	IC50 [2]	IC50 [3]
COc1cc(-c2cnc3cc(OCCN(C)c4ccncn4)ccn23)cc(OC(F)F)c1C(=O)NC1CC1 [compound 239, N-cyclopropyl-2-(difluoromethoxy)-6-methoxy-4-[7-[2-[methyl(pyrimidin-4-yl)amino]ethoxy]imidazo [1,2-a]pyridin-3-yl]benzamide]	0.01 to 10 nM	0.01 to 10 nM	0.01 to 10 nM
COc1cc(-c2cnc3cc(OCCN(C)c4ccnnc4)ccn23)cc(OC(F)F)c1C(=O)NC1CC1 [compound 240, N-cyclopropyl-2-(difluoromethoxy)-6-methoxy-4-[7-[2-[methyl(pyridazin-4-yl)amino]ethoxy]imidazo [1,2-a]pyridin-3-yl]benzamide]	0.01 to 10 nM	0.01 to 10 nM	0.01 to 10 nM
Cc1cc(-c2cnc3cc(OCCN4CCOCC4)ccn23)cc(OC(F)F)c1C(=O)NC1CC1 [compound 241, N-cyclopropyl-2-(difluoromethoxy)-6-methyl-4-[7-(2-morpholinoethoxy)imidazo[1,2-a]pyridin-3-yl]benzamide]	0.01 to 10 nM	100 to 500 nM	10 to 100 nM
Cc1cc(-c2cnc3cc(OCCN4CCOCC4)ccn23)cc(OC(F)F)c1C(=O)NCC(F)(F)F [compound 243, 2-(difluoromethoxy)-6-methyl-4-[7-(2-morpholinoethoxy)imidazo[1,2-a]pyridin-3-yl]-N-(2,2,2-trifluoroethyl)benzamide]	10 to 100 nM	> 500 nM	10 to 100 nM
COc1cc(-c2cnc3cc(OCCN4C5CCC4COC5)ccn23)cc2c1C(=O)N(CC(F)(F)F)CC2 [compound 246, 8-methoxy-6-[7-[2-(3-oxa-8-azabicyclo[3.2.1]octan-8-yl)ethoxy]imidazo[1,2-a]pyridin-3-yl]-2-(2,2,2-trifluoroethyl)-3,4-dihydroisoquinolin-1-one]	10 to 100 nM	100 to 500 nM	0.01 to 10 nM
COc1cc(-c2cnc3cc(OCC4(C)CN(C(=O)OC(C)(C)C)C4)ccn23)cc2c1C(=O)N(CC(F)(F)F)CC2 [compound 249, tert-butyl 3-[[3-[8-methoxy-1-oxo-2-(2,2,2-trifluoroethyl)-3,4-dihydroisoquinolin-6-yl]imidazo[1,2-a]pyridin-7-yl]oxymethyl]-3-methyl-azetidine-1-carboxylate]	0.01 to 10 nM	100 to 500 nM	10 to 100 nM
